Results: patent publication EP0404671A1, “Thioformamide derivatives” (RHONE-POULENC SANTE, priority 1989, dated 1990)

Columns and labels:
[1] = test system: histamine-induced bronchospasm and blood pressure; assay: Broncho-relaxant activity in the anaesthetised guinea pig (method of Dixon and Brodie); format: in vivo; settings: nebulised aerosol of 200µg/ml aqueous solution for 1 minute; for Broncho-relaxant % maximum bronchospasm: histamine-induced bronchospasm
Method: In in vivo tests in the anaesthetised guinea pig, performed according to the method of Dixon W.E. and Brodie T.G., J. Physiol 29, 97-173 (1903), the effect on histamine-induced bronchospasm and blood pressure was determined.
A nebulised aerosol generated from an aqueous solution , having a concentration of 200µg/ml was administered for 1 minute to the anaesthetised guinea pigs.

mean blood pressure = assay: Hypotensive activity in the anaesthetised rat; format: in vivo; settings: intravenous dose required to reduce the mean blood pressure
Method: The intravenous dose required to reduce the mean blood pressure in an anaesthetised rat was determined and expressed in µg/kg/min as the effective concentration (EC₃₀).

Thoracic aorta = assay: Vaso-relaxant activity: relaxation of K+-induced contraction of rat thoracic aorta strips; design: species or system rats; settings: rat thoracic aorta strips denuded of endothelium, contraction induced by 20mM K⁺, cumulative concentration; read-out: Vaso-relaxant EC₉₀
Method: The test methods used were adapted from those described by Winslow et al [Eur. J. Pharmacol., 131, 219-228 (1986)] and Karaki [J. Pharmacol Methods, 18, 1-21, (1987)] for differentiating vaso-relaxant activity.
Thoracic aorta was removed from rats and transverse strips, denuded of endothelium, were suspended in a bath containing Krebs solution. The tension was recorded and a contraction induced by addition of 20mM K⁺ (potassium ion) to the bathing solution. The test compound was added to the bath as a solution in increasing cumulative concentration. The concentration in the bathing solution of the test compound which reduced the K⁺-induced contraction was determined and expressed in nM as the effective concentration (EC₉₀)

Question: With CNC(=S)[C@]1(c2cccnc2)CCCC/C1=N\OCc1c(F)c(F)c(F)c(F)c1F [Compound 1, (1S)-anti-N-methyl-2-(2,3,4,5,6-pentafluorobenzyloxyimino)-1-(pyrid-3-yl)cyclohexanecarbothioamide] as the compound, how does the “Broncho-relaxant % maximum bronchospasm” value [1] read?
Answer: 28%

Question: What about the “Broncho-relaxant B.P.” value [1] of the same compound?
Answer: 40 mmHg

Question: And the “Hypotensive EC₃₀” value (mean blood pressure)?
Answer: 0.9 µg/kg/min

Question: And the EC90 (Thoracic aorta)?
Answer: 1 nM

Question: Which “Broncho-relaxant % maximum bronchospasm” value [1] does the source give for CNC(=S)[C@]1(c2cccnc2)CCCC/C1=N\OCc1ccc(F)c(F)c1 [Compound 2, (1S)-anti-N-methyl-2-(3,4-difluorobenzyloxyimino)-1-(pyrid-3-yl)cyclohexanecarbothioamide] here?
Answer: 17%

Question: What about the “Broncho-relaxant B.P.” value [1] of the same compound?
Answer: 32 mmHg

Question: What about the “Hypotensive EC₃₀” value (mean blood pressure) of the same compound?
Answer: 0.5 µg/kg/min

Question: What about the EC90 (Thoracic aorta) of the same compound?
Answer: 0.3 nM
